# Measured values published in PMC11157767 (Molecular Cancer, 2024).
# Several values for one entry are separate records, joined by “and”; a condition that tells them apart may be missing. Identical values can stand only once.
# Tests used:
# in vitro [1] = details: mouse, plasma
# TFG-MET allograft tumors = experiment: TFG-MET allograft preclinical trial in CD1 mice, Survival cohort (survival, BLI, body weight); type: in vivo, mouse; details: Murine allografts
# Method: All treatments started 1 week after transplantation. Radio therapy was administered for 6 days, delivering 12 Gy total. Compound treatment was continued for 84 days. […] N = 8 (vehicle arms) or n = 10 (compound-treated arms), respectively. […] First row is depicted in another intensity scale to visualize tumors in all mice. The depicted scale bar indicates the range from 5x10^5-1x10^7 photons/sec/cm^2/sr.
# Survival, body weight and tumor burden data from TFG-MET allograft-bearing mice. a,Schematic illustrating the preliminary in vivo study to determine the efficacy of RT alone. b, Survival curve of mice depicted in a. […] Each line represents one mouse. The ends of lines indicate the onset of neurological symptoms and thereby the endpoints.
# Bioluminescence signals of in vivo trials.
# [2] = pediatric solid tumors, maximum tolerated dose 280 mg/m^2 BID; cited from earlier work
# in vitro [3] = details: mouse, brain homogenate
# [4] = system: murine TFG-MET tumor cells; details: 7 days; RT 0Gy - 8Gy
# Method: For both compounds 1 µM was used as positive control.
# Compound concentrations comprised 10µM and 9 serial 1:3 dilutions in 4 replicates each and radiation doses ranged from 0Gy – 8Gy. […] Tested compound concentrations comprised 10 µM and 9 serial 1:3 dilutions in 4 replicates each. ZIP synergy scores were calculated based on cell numbers according to the CellTiter-Glo Assay by using the synergyfinder tool.
# MET-fusion pHGG = details: cited from earlier work
structure (smiles),measurement,setting,value
C[C@@H](Oc1cc(-c2cnn(C3CCNCC3)c2)cnc1N)c1c(Cl)ccc(F)c1Cl [Crizotinib],fraction unbound,in vitro [1],0.0223
same,"BLI signal, individual mice","TFG-MET allograft tumors; day 7, drug + RT",3.20E+07 and 3.90E+07 and 3.50E+08 and 1.10E+08 and 1.40E+07 and 8.30E+05 and 5.70E+06 and 1.70E+07 and 6.90E+05 and 4.00E+06
same,"BLI signal, individual mice","TFG-MET allograft tumors; day 7, drug alone",8.40E+06 and 1.40E+07 and 3.90E+08 and 2.00E+06 and 1.50E+07 and 3.90E+06 and 6.00E+06 and 4.10E+06 and 1.20E+06 and 8.20E+06
same,"BLI signal, individual mice","TFG-MET allograft tumors; day 10, drug + RT",3.00E+07 and 4.60E+07 and 1.60E+08 and 1.80E+08 and 5.10E+07 and 1.20E+06 and 1.50E+07 and 6.00E+05 and 7.00E+06
same,"BLI signal, individual mice","TFG-MET allograft tumors; day 10, drug alone",2.30E+07 and 6.50E+07 and 3.70E+08 and 3.10E+06 and 5.60E+07 and 6.20E+06 and 3.30E+07 and 1.30E+07 and 3.50E+06 and 2.70E+06
same,"BLI signal, individual mice","TFG-MET allograft tumors; day 14, drug + RT",1.90E+06 and 9.10E+07 and 9.70E+07 and 7.90E+07 and 7.60E+05 and 1.70E+08 and 5.90E+08 and 6.70E+05 and 3.10E+07
same,"BLI signal, individual mice","TFG-MET allograft tumors; day 14, drug alone",5.20E+07 and 1.80E+09 and 3.60E+07 and 3.20E+08 and 6.50E+07 and 1.60E+08 and 1.70E+07 and 1.10E+07 and 2.00E+07
same,"BLI signal, individual mice","TFG-MET allograft tumors; day 21, drug + RT",1.00E+05 and 5.60E+06 and 1.60E+07
same,"BLI signal, individual mice","TFG-MET allograft tumors; day 21, drug alone",3.40E+07 and 2.10E+08 and 2.60E+08 and 2.60E+07 and 1.40E+08 and 8.10E+07
same,"BLI signal, individual mice","TFG-MET allograft tumors; day 28, drug + RT",1.20E+08 and 2.10E+07
same,"BLI signal, individual mice","TFG-MET allograft tumors; day 28, drug alone",5.90E+07 and 2.20E+08 and 4.40E+08 and 3.00E+08
same,"BLI signal, individual mice","TFG-MET allograft tumors; day 35, drug + RT",1.30E+05 and 1.70E+07
same,"BLI signal, individual mice","TFG-MET allograft tumors; day 35, drug alone",1.00E+07 and 8.70E+08 and 6.50E+08
same,"BLI signal, individual mice","TFG-MET allograft tumors; day 42, drug + RT",1.30E+05
same,"BLI signal, individual mice","TFG-MET allograft tumors; day 42, drug alone",1.00E+07 and 1.20E+09
same,"BLI signal, individual mice","TFG-MET allograft tumors; day 49, drug alone",1.90E+06
same,"BLI signal, individual mice","TFG-MET allograft tumors; day 56, drug + RT",1.30E+05
same,"BLI signal, individual mice","TFG-MET allograft tumors; day 56, drug alone",2.20E+06
same,"BLI signal, individual mice","TFG-MET allograft tumors; day 63, drug alone",1.90E+07
same,"BLI signal, individual mice","TFG-MET allograft tumors; day 70, drug + RT",1.00E+05
same,"BLI signal, individual mice","TFG-MET allograft tumors; day 70, drug alone",2.30E+07
same,"BLI signal, individual mice","TFG-MET allograft tumors; day 84, drug + RT",1.26E+05
same,"BLI signal, individual mice","TFG-MET allograft tumors; day 91, drug alone",1.06E+05
same,mean steady total plasma AUC,[2],"6,990 hr-ng/mL"
same,fraction unbound,in vitro [3],0.0106
same,combination effect with RT (ZIP synergy model),[4],additive effect with a trend towards synergy
same,clinical response of one pHGG patient with MET fusion,MET-fusion pHGG,partial response with rapid tumor relapse
